Source: US9428503B2, “Imidazo[4,5-c]quinolin-2-one compounds and their use in treating Cancer” (AstraZeneca AB, priority 2014, dated 2016)
Where a name gives a salt, the structure may show the parent alone.

Assays:
Assay type in all cases: cell-based
[1] = molecular target: ATR kinase (Homo sapiens (Human), UniProt Q13535); test: Assay b) ATR cellular potency assay (pChk1 Ser345 in HT29 cells treated with 4NQO); conditions: HT29 cells, pChk1 Ser345 after 4NQO; geometric mean where repeated; read-out: Assay b) ATR Cell IC50
ATR kinase, sequence (Q13535 whole entry): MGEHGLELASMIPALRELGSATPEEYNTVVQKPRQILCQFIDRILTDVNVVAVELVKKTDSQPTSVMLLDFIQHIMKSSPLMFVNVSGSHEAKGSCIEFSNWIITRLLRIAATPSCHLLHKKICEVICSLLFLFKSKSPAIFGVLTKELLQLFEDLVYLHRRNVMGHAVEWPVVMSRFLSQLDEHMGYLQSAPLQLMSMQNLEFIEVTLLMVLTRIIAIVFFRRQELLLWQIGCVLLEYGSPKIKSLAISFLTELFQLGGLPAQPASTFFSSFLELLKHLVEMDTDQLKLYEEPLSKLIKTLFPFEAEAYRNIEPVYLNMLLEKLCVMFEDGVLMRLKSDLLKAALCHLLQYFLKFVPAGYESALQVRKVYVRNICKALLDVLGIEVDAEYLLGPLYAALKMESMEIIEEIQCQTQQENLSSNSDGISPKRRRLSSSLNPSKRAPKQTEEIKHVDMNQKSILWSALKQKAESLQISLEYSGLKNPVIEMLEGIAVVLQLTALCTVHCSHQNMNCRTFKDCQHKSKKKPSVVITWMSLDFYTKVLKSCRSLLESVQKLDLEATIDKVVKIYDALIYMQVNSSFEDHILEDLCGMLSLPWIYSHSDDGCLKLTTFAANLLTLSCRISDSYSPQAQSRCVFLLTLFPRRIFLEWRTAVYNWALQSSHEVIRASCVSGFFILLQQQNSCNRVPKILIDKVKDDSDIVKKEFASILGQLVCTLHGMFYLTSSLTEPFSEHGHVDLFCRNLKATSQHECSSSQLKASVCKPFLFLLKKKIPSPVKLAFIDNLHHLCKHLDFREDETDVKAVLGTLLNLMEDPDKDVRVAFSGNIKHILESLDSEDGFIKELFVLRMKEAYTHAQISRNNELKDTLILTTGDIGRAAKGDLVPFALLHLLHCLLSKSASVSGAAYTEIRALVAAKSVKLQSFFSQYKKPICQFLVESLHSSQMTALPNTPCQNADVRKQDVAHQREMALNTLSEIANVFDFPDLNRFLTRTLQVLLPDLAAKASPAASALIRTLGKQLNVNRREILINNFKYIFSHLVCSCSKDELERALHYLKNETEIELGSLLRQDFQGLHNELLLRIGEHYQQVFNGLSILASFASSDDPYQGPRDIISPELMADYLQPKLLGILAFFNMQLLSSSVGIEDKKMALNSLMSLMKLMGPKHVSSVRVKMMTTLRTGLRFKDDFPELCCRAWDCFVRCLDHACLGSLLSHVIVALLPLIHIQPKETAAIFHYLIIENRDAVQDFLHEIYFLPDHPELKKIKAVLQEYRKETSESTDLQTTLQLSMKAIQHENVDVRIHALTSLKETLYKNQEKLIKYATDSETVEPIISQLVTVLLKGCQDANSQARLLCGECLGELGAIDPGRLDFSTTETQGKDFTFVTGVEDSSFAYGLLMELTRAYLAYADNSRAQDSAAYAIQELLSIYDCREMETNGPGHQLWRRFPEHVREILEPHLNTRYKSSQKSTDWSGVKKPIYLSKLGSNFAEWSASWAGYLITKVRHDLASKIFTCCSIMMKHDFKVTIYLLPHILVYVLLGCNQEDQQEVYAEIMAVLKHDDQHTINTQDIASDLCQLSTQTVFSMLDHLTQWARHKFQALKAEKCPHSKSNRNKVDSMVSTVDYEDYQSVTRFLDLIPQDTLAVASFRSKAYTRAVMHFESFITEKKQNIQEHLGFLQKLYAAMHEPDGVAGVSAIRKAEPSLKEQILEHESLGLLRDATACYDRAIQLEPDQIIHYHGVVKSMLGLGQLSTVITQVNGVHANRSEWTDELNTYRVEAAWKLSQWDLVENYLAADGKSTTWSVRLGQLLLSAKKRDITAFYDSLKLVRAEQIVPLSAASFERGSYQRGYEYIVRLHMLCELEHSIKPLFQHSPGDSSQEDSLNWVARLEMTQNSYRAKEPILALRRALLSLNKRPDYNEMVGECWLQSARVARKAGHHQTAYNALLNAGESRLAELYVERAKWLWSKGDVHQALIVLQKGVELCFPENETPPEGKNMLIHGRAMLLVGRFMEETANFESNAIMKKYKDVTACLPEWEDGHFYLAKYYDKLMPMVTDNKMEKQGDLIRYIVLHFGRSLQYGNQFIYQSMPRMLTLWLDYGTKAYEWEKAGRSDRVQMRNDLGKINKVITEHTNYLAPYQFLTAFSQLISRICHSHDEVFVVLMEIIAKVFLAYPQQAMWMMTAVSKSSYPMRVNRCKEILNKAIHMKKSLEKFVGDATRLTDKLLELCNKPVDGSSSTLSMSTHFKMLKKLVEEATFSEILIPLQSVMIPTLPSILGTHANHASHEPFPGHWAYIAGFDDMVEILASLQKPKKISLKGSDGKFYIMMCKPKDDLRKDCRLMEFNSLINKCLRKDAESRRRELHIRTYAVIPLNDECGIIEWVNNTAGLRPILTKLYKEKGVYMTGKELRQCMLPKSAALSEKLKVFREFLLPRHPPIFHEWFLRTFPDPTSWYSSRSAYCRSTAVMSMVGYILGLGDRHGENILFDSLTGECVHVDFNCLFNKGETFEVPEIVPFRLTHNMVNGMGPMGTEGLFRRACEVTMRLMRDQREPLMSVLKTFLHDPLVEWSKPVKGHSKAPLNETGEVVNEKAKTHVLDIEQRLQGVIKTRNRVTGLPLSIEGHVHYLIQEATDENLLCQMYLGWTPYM
ATR kinase, sequence (Q8WXE1 whole entry partner): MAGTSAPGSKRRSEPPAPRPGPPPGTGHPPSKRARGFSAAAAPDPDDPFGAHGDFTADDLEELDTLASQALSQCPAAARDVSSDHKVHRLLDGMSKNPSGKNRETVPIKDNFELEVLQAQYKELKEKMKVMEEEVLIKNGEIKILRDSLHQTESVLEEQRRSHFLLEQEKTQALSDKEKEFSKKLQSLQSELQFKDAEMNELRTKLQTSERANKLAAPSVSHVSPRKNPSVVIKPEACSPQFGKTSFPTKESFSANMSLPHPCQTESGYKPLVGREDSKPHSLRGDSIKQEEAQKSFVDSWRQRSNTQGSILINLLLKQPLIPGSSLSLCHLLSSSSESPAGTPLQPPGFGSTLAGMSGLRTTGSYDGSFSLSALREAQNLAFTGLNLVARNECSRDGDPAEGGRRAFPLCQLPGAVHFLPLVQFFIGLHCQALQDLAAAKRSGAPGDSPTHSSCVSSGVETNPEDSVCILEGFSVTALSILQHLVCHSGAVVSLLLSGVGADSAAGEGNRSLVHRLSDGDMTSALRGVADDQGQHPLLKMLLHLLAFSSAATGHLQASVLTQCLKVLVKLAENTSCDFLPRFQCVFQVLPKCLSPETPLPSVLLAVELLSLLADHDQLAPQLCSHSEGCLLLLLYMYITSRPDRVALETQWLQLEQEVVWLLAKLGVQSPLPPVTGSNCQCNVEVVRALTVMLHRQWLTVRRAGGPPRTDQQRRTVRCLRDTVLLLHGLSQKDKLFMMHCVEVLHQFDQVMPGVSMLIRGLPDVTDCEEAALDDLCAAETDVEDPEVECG

[2] = molecular target: ATM kinase (Homo sapiens (Human), UniProt Q13315); test: Assay a) ATM cellular potency assay (pATM Ser1981 in X-ray irradiated HT29 cells); conditions: HT29 cells, pATM Ser1981 after X-ray irradiation; geometric mean where repeated; read-out: Assay a) ATM Cell IC50
[3] = molecular target: mTOR (Homo sapiens (Human), UniProt P42345); test: Assay d) mTOR cellular potency assay (phospho-AKT Ser473 in MDA-MB-468 cells); conditions: MDA-MB-468 cells, phospho-AKT Ser473, 2 h; geometric mean where repeated; read-out: Assay d) mTOR Cell IC50
[4] = molecular target: PI3K-α (Homo sapiens, UniProt P42336); test: Assay c) PI3K cellular potency assay (phospho-Akt T308 ELISA in BT474 cells); conditions: BT474 cells, phospho-Akt T308, 2 h; geometric mean where repeated; read-out: Assay c) PI3Kα Cell IC50
PI3K-α, sequence (P42336 whole entry, looked up): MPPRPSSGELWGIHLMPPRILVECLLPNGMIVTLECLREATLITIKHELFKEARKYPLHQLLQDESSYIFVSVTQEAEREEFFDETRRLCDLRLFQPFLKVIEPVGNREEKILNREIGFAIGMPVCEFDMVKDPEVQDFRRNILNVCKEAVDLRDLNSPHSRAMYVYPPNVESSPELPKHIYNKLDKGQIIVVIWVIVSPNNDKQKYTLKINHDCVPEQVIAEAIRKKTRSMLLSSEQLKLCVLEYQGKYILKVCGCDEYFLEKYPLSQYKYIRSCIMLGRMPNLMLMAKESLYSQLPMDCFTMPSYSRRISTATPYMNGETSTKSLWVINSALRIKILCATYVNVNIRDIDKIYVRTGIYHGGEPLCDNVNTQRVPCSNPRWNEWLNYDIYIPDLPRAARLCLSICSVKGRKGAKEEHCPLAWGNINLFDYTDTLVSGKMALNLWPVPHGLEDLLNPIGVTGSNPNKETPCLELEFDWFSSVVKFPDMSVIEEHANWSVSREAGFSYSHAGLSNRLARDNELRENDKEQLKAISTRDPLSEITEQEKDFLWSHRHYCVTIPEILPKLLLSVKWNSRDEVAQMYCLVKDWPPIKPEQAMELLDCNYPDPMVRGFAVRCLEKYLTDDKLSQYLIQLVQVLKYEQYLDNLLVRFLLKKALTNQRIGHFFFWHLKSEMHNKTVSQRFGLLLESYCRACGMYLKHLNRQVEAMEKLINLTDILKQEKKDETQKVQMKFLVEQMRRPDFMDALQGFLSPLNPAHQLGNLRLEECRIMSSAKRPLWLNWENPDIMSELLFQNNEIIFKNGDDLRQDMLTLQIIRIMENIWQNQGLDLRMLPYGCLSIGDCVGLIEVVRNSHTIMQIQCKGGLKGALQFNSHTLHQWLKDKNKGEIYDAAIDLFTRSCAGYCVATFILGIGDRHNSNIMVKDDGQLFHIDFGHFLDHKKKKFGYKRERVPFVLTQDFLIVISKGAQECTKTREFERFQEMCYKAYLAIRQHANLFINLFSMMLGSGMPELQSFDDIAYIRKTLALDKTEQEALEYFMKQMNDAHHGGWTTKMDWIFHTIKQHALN

IC50 [1] | IC50 [2] | IC50 [3] | IC50 [4] | Compound
> 21.8 µM | 0.000152 µM | 0.36 µM | 0.331 µM | CO[C@H]1CC[C@H](n2c(=O)n(C)c3cnc4ccc(-c5ccc(OCCCN(C)C)nc5)cc4c32)C1 [Example 26, 8-[6-(3-Dimethylaminopropoxy)pyridin-3-yl]-1-[(1S,3S)-3-methoxycyclopentyl]-3-methylimidazo[4,5-c]quinolin-2-one]
> 30 µM | 0.000365 µM | 0.529 µM | 1.03 µM | CN(C)CCCOc1ccc(-c2ccc3ncc4c(c3c2)n([C@H]2CCCOC2)c(=O)n4C)c(F)n1 [Example 20, 8-[6-(3-dimethylaminopropoxy)-2-fluoropyridin-3-yl]-3-methyl-1-[(3S)-oxan-3-yl]imidazo[5,4-c]quinolin-2-one]
17.8 µM | 0.000589 µM | 0.579 µM | 3 µM | CO[C@H]1C[C@@H](n2c(=O)[nH]c3cnc4ccc(-c5ccc(OCCCN6CCCC6)nc5)cc4c32)C1 [Example 35, 1-(cis-3-methoxycyclobutyl)-8-[6-(3-pyrrolidin-1-ylpropoxy)pyridin-3-yl]-3H-imidazo[4,5-c]quinolin-2-one]
> 29.4 µM | 0.0012 µM | 12.4 µM | 20.7 µM | Cn1c(=O)n(C2CCOCC2)c2c3cc(-c4ccc(OCCCN5CCCCC5)nc4)ccc3ncc21 [Example 37, 3-methyl-1-(oxan-4-yl)-8-[6-(3-piperidin-1-ylpropoxy)pyridin-3-yl]imidazo[5,4-c]quinolin-2-one]
> 29 µM | 0.000249 µM | 1.17 µM | 1.77 µM | CO[C@H]1C[C@@H](n2c(=O)n(C)c3cnc4ccc(-c5ccc(OCCCN(C)C)nc5)cc4c32)C1 [Example 2, 8-[6-(3-Dimethylaminopropoxy)pyridin-3-yl]-1-(cis-3-methoxycyclobutyl)-3-methylimidazo[4,5-c]quinolin-2-one]
> 18.8 µM | 0.00069 µM | > 9.43 µM | 7.29 µM | Cn1c(=O)n([C@@H]2CCCOC2)c2c3cc(-c4ccc(OCCCN5CCCC5)nc4)c(F)cc3ncc21 [Example 24, 7-fluoro-3-methyl-8-[6-(3-pyrrolidin-1-ylpropoxy)-3-pyridyl]-1-[(3R)-tetrahydropyran-3-yl]imidazo[4,5-c]quinolin-2-one]
> 30 µM | 0.00178 µM | 6.1 µM | 2.94 µM | Cn1c(=O)n([C@@H]2CCCOC2)c2c3cc(-c4ccc(OCCCN5CCCCC5)nc4)ccc3ncc21 [Example 32, 3-methyl-1-[(3R)-oxan-3-yl]-8-[6-(3-piperidin-1-ylpropoxy)pyridin-3-yl]imidazo[5,4-c]quinolin-2-one]
> 30 µM | 0.00322 µM | 0.248 µM | 1.52 µM | CN(C)CCCOc1ccc(-c2ccc3ncc4[nH]c(=O)n(C5CCOCC5)c4c3c2)cn1 [Example 13, 8-[6-(3-dimethylaminopropoxy)pyridin-3-yl]-1-(oxan-4-yl)-3H-imidazo[4,5-c]quinolin-2-one]
> 30 µM | 0.0038 µM | > 21.3 µM | > 29.1 µM | CN(C)CCCOc1ccc(-c2cc3c(cc2F)ncc2c3n(C3COC3)c(=O)n2C)cn1 [Example 9, 8-[6-(3-dimethylaminopropoxy)pyridin-3-yl]-7-fluoro-3-methyl-1-(oxetan-3-yl)imidazo[5,4-c]quinolin-2-one]
> 29 µM | 0.000208 µM | 3.18 µM | 0.644 µM | CO[C@@H]1CC[C@@H](n2c(=O)n(C)c3cnc4ccc(-c5ccc(OCCCN(C)C)nc5F)cc4c32)C1 [Example 68, 8-[6-[3-(Dimethylamino)propoxy]-2-fluoro-3-pyridyl]-1-[(1R,3R)-3-methoxycyclopentyl]-3-methyl-imidazo[4,5-c]quinolin-2-one]
> 24.9 µM | 0.00243 µM | > 30 µM | > 30 µM | CO[C@H]1CC[C@@H](n2c(=O)n(C)c3cnc4cc(F)c(-c5ccc(OCCCN(C)C)nc5)cc4c32)C1 [Example 70, 8-[6-[3-(dimethylamino)propoxy]-3-pyridyl]-7-fluoro-1-[(1R,3S)-3-methoxycyclopentyl]-3-methyl-imidazo[4,5-c]quinolin-2-one]
9.6 µM | < 0.000534 µM | 1.19 µM | 0.26 µM | CN(C)CCCOc1ccc(-c2ccc3ncc4c(c3c2)n([C@H]2CCOC2)c(=O)n4C)cn1 [Example 45, 8-[6-[3-(dimethylamino)propoxy]-3-pyridyl]-3-methyl-1-[(3S)-tetrahydrofuran-3-yl]imidazo[4,5-c]quinolin-2-one methanesulfonic acid salt]
2.69 µM | 0.000592 µM | 0.262 µM | 0.167 µM | CNCCCOc1ccc(-c2ccc3ncc4c(c3c2)n([C@@H]2CCCOC2)c(=O)n4C)cn1 [Example 43, 3-methyl-8-[6-[3-(methylamino)propoxy]-3-pyridyl]-1-[(3R)-tetrahydropyran-3-yl]imidazo[4,5-c]quinolin-2-one]
> 30 µM | 0.000563 µM | 18.2 µM | > 30 µM | Cn1c(=O)n([C@H]2CCCOC2)c2c3cc(-c4ccc(OCCCN5CCCC5)nc4)c(F)cc3ncc21 [Example 23, 7-fluoro-3-methyl-8-[6-(3-pyrrolidin-1-ylpropoxy)-3-pyridyl]-1-[(3S)-tetrahydropyran-3-yl]imidazo[4,5-c]quinolin-2-one]
10.8 µM | 0.00096 µM | 0.266 µM | 0.541 µM | CN(C)CCCOc1ccc(-c2ccc3ncc4c(c3c2)n(C2(C)CCOCC2)c(=O)n4C)cn1 [Example 7, 8-[6-(3-dimethylaminopropoxy)pyridin-3-yl]-3-methyl-1-(4-methyloxan-4-yl)imidazo[5,4-c]quinolin-2-one]
> 30 µM | 0.00105 µM | 1.04 µM | 0.616 µM | Cn1c(=O)n([C@H]2C[C@@H](O)C2)c2c3cc(-c4ccc(OCCCN5CCC5)nc4)ccc3ncc21 [Example 14, 8-[6-[3-(azetidin-1-yl)propoxy]pyridin-3-yl]-1-(cis-3-hydroxycyclobutyl)-3-methylimidazo[4,5-c]quinolin-2-one]
> 30 µM | 0.00262 µM | 13.7 µM | > 28 µM | CO[C@H]1C[C@@H](n2c(=O)n(C)c3cnc4cc(F)c(-c5ccc(OCCCN(C)C)nc5F)cc4c32)C1 [Example 19, 8-[6-(3-dimethylaminopropoxy)-2-fluoropyridin-3-yl]-7-fluoro-1-(cis-3-methoxycyclobutyl)-3-methylimidazo[4,5-c]quinolin-2-one]
> 30 µM | 0.00203 µM | 4.93 µM | 22.4 µM | CN(C)CCCOc1ccc(-c2cc3c(cc2F)ncc2c3n(C3(C)CCOCC3)c(=O)n2C)cn1 [Example 3, 8-[6-(3-Dimethylaminopropoxy)pyridin-3-yl]-7-fluoro-3-methyl-1-(4-methyloxan-4-yl)imidazo[5,4-c]quinolin-2-one]
> 30 µM | 0.000301 µM | 0.797 µM | 0.68 µM | CN(C)CCCOc1ccc(-c2ccc3ncc4c(c3c2)n(C2CCOCC2)c(=O)n4C)c(F)n1 [Example 21, 8-[6-(3-dimethylaminopropoxy)-2-fluoropyridin-3-yl]-3-methyl-1-(oxan-4-yl)imidazo[5,4-c]quinolin-2-one]
> 30 µM | 0.00301 µM | 10.6 µM | > 25 µM | O=c1[nH]c2cnc3ccc(-c4ccc(OCCCN5CCCCC5)nc4)cc3c2n1C1CCOCC1 [Example 36, 1-(oxan-4-yl)-8-[6-(3-piperidin-1-ylpropoxy)pyridin-3-yl]-3H-imidazo[4,5-c]quinolin-2-one]
> 30 µM | 0.00145 µM | 15.2 µM | > 11.4 µM | CO[C@@H]1CC[C@H](n2c(=O)n(C)c3cnc4cc(F)c(-c5ccc(OCCCN(C)C)nc5)cc4c32)C1 [Example 71, 8-[6-[3-(dimethylamino)propoxy]-3-pyridyl]-7-fluoro-1-[(1S,3R)-3-methoxycyclopentyl]-3-methyl-imidazo[4,5-c]quinolin-2-one]
> 30 µM | 0.00031 µM | 10.8 µM | 3.28 µM | CO[C@H]1CC[C@H](n2c(=O)n(C)c3cnc4cc(F)c(-c5ccc(OCCCN(C)C)nc5)cc4c32)C1 [Example 63, 8-[6-[3-(Dimethylamino)propoxy]-3-pyridyl]-7-fluoro-1-[(1S,3S)-3-methoxycyclopentyl]-3-methyl-imidazo[4,5-c]quinolin-2-one]
> 19.2 µM | 0.00107 µM | 2.37 µM | 0.56 µM | CN(C)CCCOc1ccc(-c2ccc3ncc4c(c3c2)n([C@@H]2CCOC2)c(=O)n4C)cn1 [Example 44, 8-[6-[3-(Dimethylamino)propoxy]-3-pyridyl]-3-methyl-1-[(3R)-tetrahydrofuran-3-yl]imidazo[4,5-c]quinolin-2-one methanesulfonic acid salt]

Compound | IC50 [1] | IC50 [2] | IC50 [3] | IC50 [4]
CO[C@@H]1CC[C@@H](n2c(=O)n(C)c3cnc4ccc(-c5ccc(OCCCN6CCCCC6)nc5)cc4c32)C1 [Example 64, 1-[(1R,3R)-3-Methoxycyclopentyl]-3-methyl-8-[6-[3-(1-piperidyl)propoxy]-3-pyridyl]imidazo[4,5-c]quinolin-2-one] | > 24.1 µM | 0.000741 µM | 12 µM | > 30 µM
CNCCCOc1ccc(-c2ccc3ncc4c(c3c2)n(C2CCOCC2)c(=O)n4C)cn1 [Example 40, 3-Methyl-8-[6-(3-methylaminopropoxy)pyridin-3-yl]-1-(oxan-4-yl)imidazo[5,4-c]quinolin-2-one] | 1.33 µM | 0.000567 µM | 0.191 µM | 0.184 µM
